Read-outs that look alike come from different tables or passages of the source. Ends that are not written are not given here. * marks the point of attachment. 125I = [125I]*
What was measured:
human PMNs (ALXR/FPRL1) = biological target: T1, human PMNs (ALXR/FPRL1) (Homo sapiens, UniProt P25090); assay: [^125I-Tyr]Ac2-26 binding, isolated human PMNs in suspension; conditions: 30 nM [^125I-Tyr]Ac2-26, 40 min, 4 °C, duplicates, n = 3
T1 sequence (P25090 1-351): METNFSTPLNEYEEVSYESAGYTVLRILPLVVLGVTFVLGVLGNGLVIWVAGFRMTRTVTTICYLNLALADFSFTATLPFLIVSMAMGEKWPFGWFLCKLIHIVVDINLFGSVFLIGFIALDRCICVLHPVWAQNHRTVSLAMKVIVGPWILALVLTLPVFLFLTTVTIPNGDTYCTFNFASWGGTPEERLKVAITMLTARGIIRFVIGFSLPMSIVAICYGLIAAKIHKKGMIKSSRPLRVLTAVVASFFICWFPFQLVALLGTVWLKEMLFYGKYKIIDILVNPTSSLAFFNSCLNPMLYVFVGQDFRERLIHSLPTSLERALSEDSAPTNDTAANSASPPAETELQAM

[1] = biological target: T2, adherent human PMNs (ALXR/FPRL1) (Homo sapiens, UniProt P25090); assay: [^125I-Tyr]Ac2-26 binding, adherent human PMNs; conditions: 30 nM [^125I-Tyr]Ac2-26, duplicates, n = 3
T2 sequence (P25090 1-351): T1 sequence (P25090 1-351)

recombinant ALXR/FPRL1 = biological target: T3, recombinant ALXR/FPRL1 (Homo sapiens, UniProt P25090); conditions: HEK293-ALXR, 30 nM [^125I-Tyr]Ac2-26, 40 min, 4 °C; duplicates, n = 3
T3 sequence (P25090 1-351): T1 sequence (P25090 1-351)

monocytes/macrophages = conditions: nonphlogistic; cited from earlier work
[2] = test system: human LTB4 receptor (BLT1); conditions: BLT1-transfected HEK293 cells; cited from earlier work
human PMNs [3] = assay: Human PMN chemotaxis; conditions: n = 3
[4] = test system: recombinant ALXR/FPRL1 (CHO-Gqo-ALXR cells); assay: Chemotaxis of CHO cells expressing ALXR and Gqo chimera; conditions: ATLa1 100 nM, Ac2-26 100 μM; 4 h, 37 °C; n = 3
[5] = test system: PMN transmigration and adhesion; conditions: cited from earlier work
human PMNs [6] = assay: Ca^2+ mobilization in Fura2-AM-loaded human PMNs
[7] = test system: Zymosan A-driven PMN infiltration; assay: Zymosan A-initiated PMN infiltration, 6-day-old murine air pouch; conditions: 4 h; for inhibition of Zymosan A-driven PMN infiltration: mean, n = 8
15-epi-LXA4 = 15-epi-LXA4 generation in murine air-pouch exudates; format: in vivo, Swiss Albino mice; conditions: ASA 300 μg; 4 and 16 h; n = 8
[8] = biological target: T4, human recombinant lipoxin A4 receptor (ALXR/FPRL1) expressed on HEK293 cells (human, UniProt P25090 1-351); assay: radioligand binding
T4 sequence (looked up): T1 sequence (P25090 1-351)

[9] = biological target: T4, human recombinant lipoxin A4 receptor …; assay: radioligand binding; remark: listed apart in the source
ALXR/FPRL1 [10] = assay: ANXA1/ALXR co-immunoprecipitation, human PMNs; format: binding; conditions: non-adherent human PMNs (control)
ANXA1 = ANXA1 generation in murine air-pouch exudates; format: in vivo, Swiss Albino mice; conditions: 4 h versus 16 h; n = 8
[11] = test system: formyl peptide receptors (FPRs); conditions: partially diminished; cited from earlier work
[12] = test system: PMN transmigration and phagocytosis; conditions: in vitro and in vivo; cited from earlier work
human ALXR (ALXR/FPRL1) = biological target: T5, human ALXR (ALXR/FPRL1) (Homo sapiens, UniProt P25090); conditions: at much higher concentrations than LXA4; cited from earlier work
T5 sequence (P25090 1-351): T1 sequence (P25090 1-351)

ALXR/FPRL1 [13] = conditions: cited from earlier work
[14] = test system: human PMN oxidative burst; conditions: cited from earlier work

CCCCC[C@H](O)/C=C/C=C\C=C\C=C\[C@@H](O)[C@@H](O)CCCC(=O)O [LXA4, lipoxin A4, reference compound]
competition for [^125I-Tyr]Ac2-26 binding to human PMN (in words) (human PMNs (ALXR/FPRL1); suspension): competed for [^125I-Tyr]Ac2-26 peptide binding to human PMN | competition for specific [^125I-Tyr]Ac2-26 binding, adherent PMNs (in words) [1]: retained their ability to compete | competition for specific [^125I-Tyr]Ac2-26 binding (in words) (recombinant ALXR/FPRL1): specifically competed | enhanced uptake of apoptotic neutrophils by monocytes/macrophages (monocytes/macrophages): enhance the uptake of apoptotic neutrophils | competition for [^3H]LTB4 binding [2]: neither LXA4 (ref. [18]) nor Ac2-26 peptide competed

CCCCCC(C)(O)/C=C/C=C\C=C\C=C\[C@@H](O)[C@@H](O)CCCC(=O)O (mixture of isomers) [ATLa1, 15(R/S)-methyl-LXA4]
block of Ac2-26-evoked chemotaxis, human PMNs (human PMNs [3]; ATLa1 10 or 100 nM, 30 min, 37 °C, Ac2-26 1–10 μM): clearly blocked Ac2-26 evoked chemotaxis | chemotactic activity, human PMNs (human PMNs [3]; Ac2-26 1–10 μM or ATLa1 alone 10–100 nM): did not evoke chemotaxis | chemotaxis responses, CHO-Gqo-ALXR cells [4]: clear chemotaxis responses

O=c1c(-c2ccc(O)cc2)coc2cc(O)cc(O)c12 [genistein, reference compound]
modulation of LXA4-regulated PMN transmigration and adhesion [5]: modulates LXA4-regulated PMN transmigration and adhesion | block of Ac2-26 calcium mobilization response (human PMNs [6]; Supplementary Fig. B, panel c): partially blocked

C[C@@H]1C[C@H]2[C@@H]3CCC4=CC(=O)C=C[C@]4(C)[C@@]3(F)[C@@H](O)C[C@]2(C)[C@@]1(O)C(=O)CO [DEX, dexamethasone, reference compound]
inhibition of Zymosan A-driven PMN infiltration ([7]; DEX alone 10 μg into pouch 15 min before Zymosan A (1 mg)): 53%

Ac2-6: ANXA1-derived peptide (Ac-AMVSE; UniProt P04083 2-6, looked up, fragment)
inhibition of PMN infiltration, i.v. peptides (in words) ([7]; i.v. tail vein 15 min prior to 1 mg Zymosan A, 6–12 mice): inhibited PMN infiltration in a dose-dependent fashion

CC(=O)Oc1ccccc1C(=O)O [ASA, Aspirin, reference compound]
15-epi-LXA4 (ATL) generation in ASA-treated animals (15-epi-LXA4): generated and present in ASA-treated animals at 4 hours that diminished by 16 hours | inhibition of Zymosan A-driven PMN infiltration ([7]; ASA alone 1 mg into pouch 15 min before Zymosan A (1 mg)): 36%

O=C(O)CCC[C@H](O)[C@H](O)/C=C/C=C/C=C\C=C\[C@@H](O)COc1ccc(F)cc1 [ATLa, 15-epi-16-(para-fluoro)-phenoxy-LXA4]
inhibition of PMN infiltration, i.v. ATLa 5 μg ([7]; 5 μg per mouse (~12 nmol) i.v. 15 min before Zymosan A, n = 6–8): ~ 40% | inhibition of PMN infiltration, administered (in words) ([7]; ATLa 0.5–5 μg, Ac2-26 5–100 μg i.v., n = 6–8): potent inhibitors of PMN infiltration

Ac-AMVSEFLKQAWFIENEEQEYVQTVK [ANXA1-derived peptide Ac2-26 (unlabelled)]
IC50 [8]: ~300 nM

Ac-AMVSEFLKQAW [ANXA1-derived peptide Ac2-12]
IC50 [8]: ~300 nM | IC50 [9]: ~20000 nM

Ac-AMVSEFLKQAWFIENEEQEY(125I)VQTVK [[125I-Tyr]Ac2-26 peptide (radio-iodinated ANXA1-derived peptide Ac2-26)]
Kd [9]: ~900 nM

B1: hrANXA1: human recombinant annexin 1 (protein)
chain: MAMVSEFLKQAWFIENEEQEYVQTVKSSKGGPGSAVSPYPTFNPSSDVAALHKAIMVKGVDEATIIDILTKRNNAQRQQIKAAYLQETGKPLDETLKKALTGHLEEVVLALLKTPAQFDADELRAAMKGLGTDEDTLIEILASRTNKEIRDINRVYREELKRDLAKDITSDTSGDFRNALLSLAKGDRSEDFGVNEDLADSDARALYEAGERRKGTDVNVFNTILTTRSYPQLRRVFQKYTKYSKHDMNKVLDLELKGDIEKCLTAIVKCATSKPAFFAEKLHQAMKGVGTRHKALIRIMVSRSEIDMNDIKAFYQKMYGISLCQAILDETKGDYEKILVALCGGN
effect on cellular response to subsequent fMLP (in words) (human PMNs [6]; Ac2-26 10 μM, hrANXA1 0.5 μM): did not affect the cellular response

B2: ANXA1: protein of 346 amino acids and a member of the annexin superfamily, highly abundant PMN-derived protein induced by glucocorticoids (protein, UniProt P04083 2-346, looked up)
Annexin A1: AMVSEFLKQAWFIENEEQEYVQTVKSSKGGPGSAVSPYPTFNPSSDVAALHKAIMVKGVDEATIIDILTKRNNAQRQQIKAAYLQETGKPLDETLKKALTGHLEEVVLALLKTPAQFDADELRAAMKGLGTDEDTLIEILASRTNKEIRDINRVYREELKRDLAKDITSDTSGDFRNALLSLAKGDRSEDFGVNEDLADSDARALYEAGERRKGTDVNVFNTILTTRSYPQLRRVFQKYTKYSKHDMNKVLDLELKGDIEKCLTAIVKCATSKPAFFAEKLHQAMKGVGTRHKALIRIMVSRSEIDMNDIKAFYQKMYGISLCQAILDETKGDYEKILVALCGGN
co-immunoprecipitation of ANXA1 with ALXR/FPRL1, non-adherent PMNs (ALXR/FPRL1 [10]): not co-immunoprecipitated | ANXA1 generation in exudates (ANXA1): low at 4 hours and much higher at 16 hours | competition for specific [^125I-Tyr]Ac2-26 binding (in words) (recombinant ALXR/FPRL1): competed for [^125I-Tyr]Ac2-26 binding with similar affinity | reduction of ANXA1 interactions with circulating leukocytes or peritoneal macrophages in FPR-deficient mice [11]: ~ 40% | inhibition of PMN transmigration and phagocytosis [12]: potent inhibitors of PMN transmigration and phagocytosis

B3: SAA: a proteolytic product of the acute phase response (protein, UniProt P0DJI8 19-122, looked up)
Serum amyloid A-1 protein: RSFFSFLGEAFDGARDMWRAYSDMREANYIGSDKYFHARGNYDAAKRGPGGAWAAEVITDARENIQRFFGHGAEDSLADQAANEWGRSGKDPNHFRPAGLPEKY
IC50 (human PMNs (ALXR/FPRL1); read-out: apparent IC50, competition for specific [^125I-Tyr]Ac2-26 binding, human PMNs in suspension): ~1000 nM | competition for specific [^125I-Tyr]Ac2-26 binding, adherent PMNs (in words) [1]: retained their ability to compete | competition for specific [^3H]LXA4 binding (in words) (human ALXR (ALXR/FPRL1)): competes for specific [^3H]LXA4 binding | activation of HEK293 cells expressing ALXR/FPRL1 (ALXR/FPRL1 [13]): activates HEK293 cells expressing ALXR/FPRL1 | inhibition of human PMN oxidative burst [14]: inhibits human PMN oxidative burst

— publication PMC2777269 (Nature medicine, 2002)
